{"source": "patent US4771041A", "about": "“Method for combating virus infection” (priority 1976, dated 1988)", "system": "YBA solid tumors (Moloney virus)", "experiment": "Survival of CBA mice bearing YBA solid tumors", "format": "in vivo", "conditions": "0.5% in the drinking water, pH 7.2; FIG. 3", "description": "The inhibition of reverse transcriptase by phosphonoformic acid (PFA) has prompted an investigation of the effect of PFA on animals with tumors where retroviruses are implicated. Ehrlich ascites tumors (Friend virus) in NMRI mice and YBA solid tumors (Moloney virus) in CBA mice have been used.\nNMRI mice were inoculated intraperitoneally with 0.1 ml of a 1/10 dilution of ascitic fluid from a mouse with an Ehrlich ascites tumor. Nine mice were given intraperitoneally 100 mg/kg of PFA per day as a 2% solution at pH 7.2, and 9 mice were treated with 0.95% NaCl ip. CBA mice were inoculated with 7×10^6 cells subcutaneously in the flank. Fifteen CBA mice were given 0.5% PFA at pH 7.2 in the drinking water and fifteen water without addition."}
{"smiles": "O=C(O)P(=O)(O)O", "note": "[phosphonoformic acid]", "values": [{"measurement": "survival of mice inoculated with YBA cells", "value": "increased survival"}]}
